Measured values published in paper PMC8979514 (Journal of Enzyme Inhibition and Medicinal Chemistry, 2022).
Like-named read-outs stand apart in the source and are kept apart here.

Key:
[1] = biological target: T1, Acetylcholinesterase (eeAChE, E.C. 3.1.1.7) (Electrophorus electricus, UniProt O42275); test: biochemical; assay type: biochemical, electric eel; settings: for IC50: eeAChE; for Selectivity IC50(eeAChE)/ IC50(BChE): ratio of IC50 values
T1 construct: purchased Sigma Aldrich
Experimental: (§1) [33] Inhibitory activity was tested at room temperature on 96-well plate using Ellman’s method. Lyophilised powders of AChE and BChE were dissolved in phosphate buffer (pH 7.5, 0.1 M) with 1% BSA.
(§2) Each well was filled to a total volume of 330 µL. The content inculded 285 µL of phosphate buffer, 5 µL 2 units/mL of eeAChE/BChE, 10 µL 0.01 M of DTNB, 10 µl of tested compound (for the control wells 10 µL of the phosphate buffer instead of tested compound) and 20 µL (7.5 mM) ATCh/BTCh. The hydrolysis of ATCh/BTCh was initiated by adding it to the well directly before the measurement. The absorbance was recorded at 1 min intervals for 8 min in total. The percent of inhibition was calculated by nonlinear regression analysis of the response–concentration (log) curve as a percentage of the reaction rate of the tested compounds over the control. Data analysis was performed by using GraphPad Prism 5.0 Software to give the IC50 values. The experiment was carried out in triplicate.

[2] = biological target: T2, butyrylcholinesterase (BChE, E.C. 3.1.1.8) (Equus caballus, UniProt P81908); test: biochemical; set-up: species or system equine serum; settings: for IC50: BChE from equine serum
T2 construct: purchased Sigma Aldrich
T2 sequence (P81908 whole entry): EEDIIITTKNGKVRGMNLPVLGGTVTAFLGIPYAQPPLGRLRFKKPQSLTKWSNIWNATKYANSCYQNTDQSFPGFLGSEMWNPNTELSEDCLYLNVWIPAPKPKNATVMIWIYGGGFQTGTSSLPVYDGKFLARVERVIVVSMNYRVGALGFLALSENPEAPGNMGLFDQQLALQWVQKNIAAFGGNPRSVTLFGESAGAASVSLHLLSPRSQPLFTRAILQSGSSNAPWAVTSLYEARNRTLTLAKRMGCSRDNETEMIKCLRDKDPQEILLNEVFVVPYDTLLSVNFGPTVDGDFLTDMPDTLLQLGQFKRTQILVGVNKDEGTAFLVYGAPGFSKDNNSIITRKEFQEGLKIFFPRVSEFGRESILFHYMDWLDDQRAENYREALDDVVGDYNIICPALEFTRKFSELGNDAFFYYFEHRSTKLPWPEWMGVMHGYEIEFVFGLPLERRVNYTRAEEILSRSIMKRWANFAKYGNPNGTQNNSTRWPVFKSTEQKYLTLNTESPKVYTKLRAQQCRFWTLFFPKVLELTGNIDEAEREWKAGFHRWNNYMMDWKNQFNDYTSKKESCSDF
Experimental: as §1, §2

[3] = in vitro; assay type: cell-based, human; settings: human, 24 h incubation, MTT, mean ± SD, read-out: Cells viability of SH-SY5Y cell line (% of control)
Experimental: (§3) Human neuroblastoma SH-SY5Y and human liver hepatocellular HepG2 cell lines were purchased from the American Type Culture Collections (ATCC). SH-SY5Y cells were cultured in a Dulbecco’s Modified Eagle Medium (DMEM) supplemented with Ham F12 medium (ratio 1:1), whereas HepG2 cells in Eagle’s Minimum Essential Medium (EMEM). Additionally, all culture medium was supplemented with 10% foetal bovine serum (FBS), streptomycin (100 µg/mL) and penicillin (100 U/mL). The cells were seeded into flasks containing supplemented medium and maintained in a humidified atmosphere of 5% CO2 and 95% air at 37 °C. The cell viability assay was performed in confluence of the cells in serum free medium (without FBS) was 80–90%.
(§4) […]. SH-SY5Y cells and HepG2 cells were seeded on 96-well plate with a density of 27–29 × 10^3 cells/well and 12–14 × 10^3/well respectively. […]. The DMSO concentration of every well in final dilutions was equal to or less than 0.1%. After incubation with compounds, MTT was added and 2 h later, the absorbance was measured at 492 nm. The result was expressed as the percentage of control cells (cultured in serum-free medium containing 0.1% of DMSO) which was set to 100%. The MTT test was performed in three independent replications. Data analysis was performed by using GraphPad Prism 5.0 Software.
(§5) SH-SY5Y a standard cell line used for determining neurocytotoxic effect of potential drug. Moreover it is well-established in vitro model of neurodegenerative disorders. […].

[4] = in vitro; assay type: cell-based, human; settings: human; MTT, 24 h incubation; read-out: Cytotoxicity on HepG2 cells IC50
Experimental: as §3, §4
(§6) . HepG2 is a commonly used in vitro model for the investigation of hepatocytotoxic effect of xenobiotics [40]^,[41]. In our study, we evaluated the toxicity of our new analogs against […]. […]

[5] = test system: SH-SY5Y cells; test: in vitro; assay type: cell-based, human; settings: 100 µM, 24 h incubation, MTT, mean ± SD
Experimental: as §3, §4, §5

[6] = test system: HepG2 cells; test: in vitro; assay type: cell-based, human; settings: HepG2 cells
Experimental: as §3, §4, §6

[7] = IC50 AChE, Ellman's method, phosphate buffer pH 7.5, room temperature
[8] = pIC50 ± S.E.M. AChE, value in brackets under the IC50
[9] = IC50 BChE, Ellman's method, phosphate buffer pH 7.5, room temperature
[10] = pIC50 ± S.E.M. BChE, value in brackets under the IC50
[11] = from IC50 values, versus tacrine
[12] = Ellman's method, phosphate buffer pH 7.5, room temperature, read-out: IC50 AChE
[13] = value in brackets under the IC50, read-out: pIC50 ± S.E.M. AChE (converted)
[14] = Ellman's method, phosphate buffer pH 7.5, room temperature, read-out: IC50 BChE
[15] = value in brackets under the IC50, read-out: pIC50 ± S.E.M. BChE (converted)

T1 sequence (O42275 24-633): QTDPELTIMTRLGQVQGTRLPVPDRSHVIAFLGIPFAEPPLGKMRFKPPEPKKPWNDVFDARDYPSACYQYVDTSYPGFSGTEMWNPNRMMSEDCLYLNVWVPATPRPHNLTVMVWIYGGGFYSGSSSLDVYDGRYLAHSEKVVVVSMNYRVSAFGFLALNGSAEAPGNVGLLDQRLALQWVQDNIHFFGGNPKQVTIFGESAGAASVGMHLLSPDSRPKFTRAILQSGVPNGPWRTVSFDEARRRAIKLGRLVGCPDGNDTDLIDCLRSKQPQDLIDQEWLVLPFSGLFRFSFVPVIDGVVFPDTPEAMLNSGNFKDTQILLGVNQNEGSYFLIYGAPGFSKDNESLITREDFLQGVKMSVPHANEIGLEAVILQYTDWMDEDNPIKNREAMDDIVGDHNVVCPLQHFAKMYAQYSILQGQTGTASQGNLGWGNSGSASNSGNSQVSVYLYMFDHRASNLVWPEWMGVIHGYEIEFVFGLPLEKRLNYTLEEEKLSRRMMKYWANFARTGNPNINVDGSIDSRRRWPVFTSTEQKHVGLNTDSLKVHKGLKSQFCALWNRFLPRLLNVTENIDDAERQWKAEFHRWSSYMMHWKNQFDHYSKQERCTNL

SMILES | IC50 [1, 7] [nM] | IC50 [1, 8] [nM] | Selectivity IC50(eeAChE)/ IC50(BChE) [1] | IC50 [2, 9] [nM] | IC50 [2, 10] [nM] | viability at 24 h, 12.5 µM [3] [%] | viability at 24 h, 50 µM [3] [%] | viability at 24 h, 100 µM [3] [%] | IC50 [1, 12] [nM] | IC50 [1, 13] [nM] | IC50 [4] [nM] | IC50 [2, 14] [nM] | IC50 [2, 15] [nM] | viability at 12.5 µM [3] [%] | viability at 50 µM [3] [%] | viability at 100 µM [3] [%] | IC50 at 24 h [4] [nM] | further results
O=P(OCCNCCNc1c2c(nc3ccccc13)CCCC2)(Oc1ccccc1)Oc1ccccc1 [Compound 21, Diphenyl(2-((2-((1,2,3,4-tetrahydroacridin-9-yl)amino)ethyl)amino)ethyl)phosphate] | 501 | 501 | 12.22 | 41 | 41 | 52.3 ± 5 | 42.7 ± 6.4 | 30.7 ± 1.5 | – | – | – | – | – | – | – | – | – | –
O=P(NCCCCCCCCCCCCNc1c2c(nc3ccccc13)CCCC2)(Oc1ccccc1)Oc1ccccc1 [Compound 13, Diphenyl(12-((1,2,3,4-tetrahydroacridin-9-yl)amino)dodecyl)phosphoramidate] | 9.96 | 9.95 | 5.06 | 1.97 | 1.97 | 40.4 ± 7.6 | 38.4 ± 7.6 | 38 ± 3.8 | – | – | – | – | – | – | – | – | – | fold more potent than tacrine against BChE [2, 11]: 12 fold
CCOP(=O)(NCCCCCCCCCCCCNc1c2c(nc3ccccc13)CCCC2)OCC [Compound 11, Diethyl(12-((1,2,3,4-tetrahydroacridin-9-yl)amino)dodecyl)phosphoramidate] | – | – | 0.51 | – | – | – | – | – | 33.3 | 33.3 | 50 | 65.5 | 65.5 | 35.4 ± 4.6 | 35.5 ± 4.1 | 31.1 ± 6.4 | – | –
O=P(NCCCCCCCCNc1c2c(nc3ccccc13)CCCC2)(Oc1ccccc1)Oc1ccccc1 [Compound 10, Diphenyl(8-((1,2,3,4-tetrahydroacridin-9-yl)amino)octyl)phosphoramidate] | – | – | 0.24 | – | – | – | – | – | 44.2 | 44.3 | 7150 | 188 | 188 | 80.1 ± 16.8 | 63.7 ± 5.7 | 48.1 ± 8.1 | – | –
CCOP(=O)(NCCCCCCCCNc1c2c(nc3ccccc13)CCCC2)OCC [Compound 8, Diethyl(8-((1,2,3,4-tetrahydroacridin-9-yl)amino)octyl)phosphoramidate] | 6.11 | 6.11 | 0.48 | 12.9 | 12.9 | 76.7 ± 5.8 | 51.6 ± 5.4 | 52.2 ± 1 | – | – | – | – | – | – | – | – | 23700 | fold more potent than tacrine against AChE [1, 11]: 6 fold
CCOP(=O)(OCC)OCCCNc1c2c(nc3ccccc13)CCCC2 [Compound 16, Diethyl(3-((1,2,3,4-tetrahydroacridin-9-yl)amino)propyl)phosphate] | – | – | 14.36 | – | – | – | – | – | 246 | 245 | 114000 | 17.1 | 17.1 | 88.1 ± 7.8 | 80 ± 7.7 | 83.5 | – | Cells viability of SH-SY5Y cell line (% of control) [5]: 83.47 ± 8.6 % of control
CCCCOP(=O)(NCCCCCCCCCCCCNc1c2c(nc3ccccc13)CCCC2)OCCCC [Compound 12, Dibutyl(12-((1,2,3,4-tetrahydroacridin-9-yl)amino)dodecyl)phosphoramidate] | 16.3 | 16.3 | 0.27 | 61.2 | 61.2 | 69.3 ± 3.7 | 52.1 ± 3.1 | 53.5 ± 5.8 | – | – | – | – | – | – | – | – | 20800 | –
O=P(OCCCNc1c2c(nc3ccccc13)CCCC2)(Oc1ccccc1)Oc1ccccc1 [Compound 18, Diphenyl(3-((1,2,3,4-tetrahydroacridin-9-yl)amino)propyl)phosphate] | 58.6 | 58.6 | 1.55 | 37.7 | – | 79.5 ± 7.4 | 71.2 ± 20.5 | 59 ± 20.3 | – | – | – | – | – | – | – | – | 53800 | –
CCCCOP(=O)(OCCCC)OCCCNc1c2c(nc3ccccc13)CCCC2 [Compound 17, Dibutyl(3-((1,2,3,4-tetrahydroacridin-9-yl)amino)propyl)phosphate] | 110 | 110 | 3.78 | 29.1 | 29.1 | 94.4 ± 5.1 | 67.7 ± 14.7 | 63.2 ± 12.2 | – | – | – | – | – | – | – | – | 72300 | –
O=P(NCCCCCCNc1c2c(nc3ccccc13)CCCC2)(Oc1ccccc1)Oc1ccccc1 [Compound 7, Diphenyl(6-((1,2,3,4-tetrahydroacridin-9-yl)amino)hexyl)phosphoramidate] | – | – | 3.04 | – | – | – | – | – | 125 | 125 | 14600 | 41.1 | 41.1 | 47.4 ± 1.2 | 41.3 ± 1.5 | 30.1 ± 5 | – | –
CCOP(=O)(NCCCCCCNc1c2c(nc3ccccc13)CCCC2)OCC [Compound 6, Diethyl(6-((1,2,3,4-tetrahydroacridin-9-yl)amino)hexyl)phosphoramidate] | 32.6 | 32.6 | 4.82 | 6.75 | 6.76 | 74.3 ± 4.9 | 71.7 ± 7.2 | 67.5 ± 9 | – | – | – | – | – | – | – | – | 140000 | –
CCCCOP(=O)(NCCCCCCCCNc1c2c(nc3ccccc13)CCCC2)OCCCC [Compound 9, Dibutyl(8-((1,2,3,4-tetrahydroacridin-9-yl)amino)octyl)phosphoramidate] | 8.18 | 8.18 | 0.2 | 41.5 | 41.5 | 77.5 ± 13.5 | 55.7 ± 11.5 | 54.6 ± 8.4 | – | – | – | – | – | – | – | – | 43300 | –
CCCCOP(=O)(OCCCC)OCCNCCNc1c2c(nc3ccccc13)CCCC2 [Compound 20, Dibutyl(2-((2-((1,2,3,4-tetrahydroacridin-9-yl)amino)ethyl)amino)ethyl)phosphate] | 81.6 | 81.5 | 0.44 | 186 | – | 78.9 ± 8.6 | 79.7 ± 1.1 | 68.6 ± 14.5 | – | – | – | – | – | – | – | – | 134000 | –
CCOP(=O)(OCC)OCCNCCNc1c2c(nc3ccccc13)CCCC2 [Compound 19, Diethyl(2-((2-((1,2,3,4-tetrahydroacridin-9-yl)amino)ethyl)amino)ethyl)phosphate] | – | – | 6.08 | – | – | – | – | – | 677 | 676 | > 600000 | 111 | 112 | 85.5 ± 12.6 | 82.6 ± 3.2 | 81.1 | – | hepatocytotoxicity in MTT assay (in words) [6]: lack of hepatocytotoxicity; Cells viability of SH-SY5Y cell line (% of control) [5]: 81.12 ± 5.0 % of control
